Experimental data taken from ChEMBL document CHEMBL1806431, “Imidazo[1,2-a]pyridin-3-amines as potential HIV-1 non-nucleoside reverse transcriptase inhibitors” (Bioorg Med Chem, 2011).

Assays:
[1] = Permeability of the compound at 100 uM after 5 hrs by PAMPA
[2] = Selectivity index, ratio of CC50 for MAGI-CCR5 cells to IC50 for HIV13B infected in human MAGI-CCR5 cells; format: functional
[3] = Cytotoxicity against human MAGI-CCR5 cells after 48 hrs by MTS cell viability assay
[4] = biological target: Human immunodeficiency virus type 1 reverse transcriptase (Human immunodeficiency virus 1, UniProt Q72547); assay: Inhibition of HIV1 reverse transcriptase assessed as residual enzyme activity at 50 uM after 1 hr by ELISA
[5] = test system: Human immunodeficiency virus 1; assay: microbe, parasite or virus in culture; format: functional, organism-based; details: Human immunodeficiency virus 1, 3B, MAGI-CCR5, 48 h

SMILES | permeability [1] | IC50 [4] [µM] | IC50 [5] [µM] | Ratio CC50/IC50 [2] | CC50 at 48 h [3] [µM]
Clc1ccccc1-c1nc2ccccn2c1NC1CCCCC1 | permeable | 4.4 | 0.41 | 147 | 60.4
Cc1ccn2c(NC3CCCCC3)c(-c3ccccc3Cl)nc2c1 | permeable | – | – | – | –
N#Cc1cccc2nc(-c3ccccc3Cl)c(NC3CCCCC3)n12 | permeable | 3.47 | 0.18 | 868 | 156
Fc1ccc2nc(-c3ccccc3Cl)c(NC3CCCCC3)n2c1 | – | 11.3 | 1.88 | 85 | 160
Clc1ccccc1-c1nc2cccc(Cl)n2c1NC1CCCCC1 | permeable | 3.74 | 0.24 | 633 | 152
Clc1ccccc1-c1nc2ccc3ccccc3n2c1NC1CCCCC1 | permeable | 7.52 | 0.6 | 243 | 146
Cc1ccnc2c1NC(=O)c1cccnc1N2C1CC1 [NEVIRAPINE] | – | – | 0.09 | – | > 10
CC(C)NCC(O)COc1cccc2[nH]ccc12 (stereo not given) [PINDOLOL] | permeable | – | – | – | –

Further lines, with some results ahead:

permeability [1] | IC50 [4] [µM] | IC50 [5] [µM] | SMILES | Ratio CC50/IC50 [2] | CC50 at 48 h [3] [µM]
permeable | 5.39 | 0.64 | Cc1ccc2nc(-c3ccccc3Cl)c(NC3CCCCC3)n2c1 | 90 | 57.4
– | 1.55 | 0.19 | Cc1cccc2nc(-c3ccccc3Cl)c(NC3CCCCC3)n12 | 108 | 20.5
permeable | 6.6 | < 0.63 | N#Cc1ccc2nc(-c3ccccc3Cl)c(NC3CCCCC3)n2c1 | >222 | 140
permeable | 14.5 | 0.84 | Clc1ccc2nc(-c3ccccc3Cl)c(NC3CCCCC3)n2c1 | >238 | > 200
– | 12.2 | 2.19 | Clc1ccccc1-c1nc2ccc(Br)cn2c1NC1CCCCC1 | >91 | > 200
– | 4.62 | 3.15 | Clc1ccccc1-c1nc2cccc(Br)n2c1NC1CCCCC1 | 64 | > 200
– | 18.9 | 73 | Cc1c(Br)ccc2nc(-c3ccccc3Cl)c(NC3CCCCC3)n12 | >3 | > 200
permeable | – | – | COCCc1ccc(OCC(O)CNC(C)C)cc1 (stereo not given) [METOPROLOL] | – | –
